Article PMC11681865, “Oligomerization of protein arginine methyltransferase 1 and its functional impact on substrate arginine methylation” (The Journal of Biological Chemistry, 2024)
Entries after “also recorded” stand apart in the source; their conditions may differ.

Tests used:
[1] = tested on: PRMT1-WT / PRMT1-E153Q oligomers; experiment: MALDI-MS methylation states of R4 peptide by PRMT1-WT with added PRMT1-E153Q; assay type: biochemical, human; conditions: 0.5 μM PRMT1-WT, 0-2 μM PRMT1-E153Q
Description: (§1) It is known that PRMT1 can mono- and di-methylate an arginine residue on a protein or peptide substrate sequence, which results in monomethylarginine and asymmetric dimethylarginines product states. We attempted to examine whether oligomerization promotes PRMT1 ability to generate multiple methylation states in substrates. We used a synthetic peptide with four possible arginine methylation sites for PRMT1: the R4 peptide (Ac-[…]). R4 peptide, SAM, and different concentrations of PRMT1 were mixed in an aqueous buffer to allow methylation to occur, and then the mixture was subjected to MALDI-MS analysis. […] Our rationale is that, even though PRMT1-E153Q is catalytically dead, it can still interact with PRMT1-WT, resulting in hybrid higher oligomers. Therefore, presenting varying amounts of PRMT1-E153Q to a fixed concentration of PRMT1-WT would be another ideal way to test how oligomerization impacts on PRMT1 activity. […] Next, the concentration of PRMT1-WT was kept constant at 0.5 μM, but the concentration of PRMT1-E153Q was changed (Fig. 4). […] We further tested the methylation of the H4 peptide by 0.1 μM PRMT1-WT with the presence of PRMT1-E153Q.
Figure 4 Determine the methylation state of R4 peptide by PRMT1 and PRMT1-E153Q oligomers formation. PRMT1 and PRMT1-E153Q was incubated on ice for 20 min before the addition of 10 μM R4 and 50 μM of SAM. […]

PRMT1 [2] = target: T1, PRMT1 (Homo sapiens, UniProt Q99873); experiment: MALDI-MS methylation states of R4 peptide by PRMT1-WT; assay type: biochemical; conditions: 0.5 μM vs 1 μM PRMT1, 10 μM R4, 50 μM SAM, 30 min
T1 construct: human PRMT1 protein (amino acid residue 11–353); His6; made in house
Description: as §1
Figure 3 Determine the methylation state of R4 peptide by PRMT1 high-order oligomers. The reaction consisted of 0 μM (A), 0.5 μM (B), 1 μM (C) of PRMT1, 10 μM R4 peptide, and 50 μM SAM for 30 min at room temperature. […]

PRMT1-WT = target: T2, PRMT1-WT (Homo sapiens, UniProt Q99873); experiment: Radiometric P81 filter-binding assay, PRMT1-WT concentration dependence; assay type: biochemical; conditions: 50 μM peptide, 2 μM [3H]-SAM and 48 μM SAM, 30 min, room temperature, pH 8.0
T2 construct: His-MBP (N, cleaved yes); made in house; host or cells: Escherichia coli BL21 (DE3) RIPL
Description: We used the phosphocellulose P81 filter paper–binding assay to measure the catalytic activity of PRMT1 at different concentrations on individual peptides. Each reaction mixture was composed of PRMT1-WT at varied concentrations, at fixed concentrations of SAM and peptide. The reaction mixture was quenched with isopropanol, transferred to the P81 filter paper, and washed with sodium bicarbonate buffer (pH 9). […] The measured count-per-minute (CPM) values correlated directly with the amounts of methylated peptide products. In a typical enzymatic catalysis, the product should be formed linearly as a function of enzyme concentration.
Various concentrations of PRMT1-WT were incubated with radioactive 2 μM [3H]-SAM and 48 μM SAM and 50 μM of indicated peptides for 30 min. The reaction was quenched with 100% isopropanol.
The reaction buffer consisted of 50 mM Hepes pH 8.0, 10 mM NaCl, 0.5 mM EDTA, and 0.5 mM DTT. The reaction was incubated at room temperature for 30 min after being initiated with ^3H-SAM SAM. An equal amount of 100% isopropanol to the total reaction volume was used to quench the reaction. The reaction liquid was transferred onto the phosphocellulose P81 filter paper (1.1 cm × 2 cm, Protein Chemistry & Metabolism Unit at St Vincent's Institute of Medical Research). The P81 filter papers containing the samples were left at room temperature for 30 min to airdry. […]

R4 peptide = experiment: MALDI-MS methylation activity of PRMT1-E153Q and PRMT1-WT on R4 peptide; assay type: biochemical; conditions: 2 μM PRMT1, 10 μM R4, 50 μM SAM, 30 min, room temperature
Description: as §1
The reaction buffer contained 50 mM Hepes pH 8.0, 10 mM NaCl, 0.5 mM EDTA, and 0.5 mM DTT. The reaction consisted of PRMT1 at various concentrations, 10 μM of R4 (Peptide Sequence: Ac-[…]), and 50 μM of SAM. […]

PRMT1 [3] = target: T1, PRMT1; experiment: Dynamic light scattering of PRMT1 oligomers; assay type: physicochemical; conditions: no denaturant, 50 mM Hepes pH 8, 10 mM NaCl, 0.5 mM EDTA, 0.5 mM DTT, 25 °C, average of three runs of 25 scans
Description: Dynamic light scattering (DLS) uses a laser to measure the particle size distribution ([26]). The DLS can give information regarding the heterogeneity of protein in a sample ([27]). In the past, DLS was used to study microbial and viral structure ([28]). Nowadays, DLS is a popular method for studying nanoparticles, liposomes, and exosomes ([29], [30], [31], [32]). Researchers have also used DLS to study the protein folding of bovine serum albumin ([33]). Therefore, we envisage that the DLS can be utilized to analyze the size changes of PRMT1 oligomeric compositions in an aqueous solution. We expect to see an increase in size with increasing protein concentrations. The prepared PRMT1 protein at varied concentrations was allowed to incubate in the aqueous buffer for equilibrium on ice for 10 min. The protein solution was filtered with 0.2-micron filter to remove any big interfering particles. The protein size was analyzed using a Malvern Zetasizer instrument. We took an average of three runs with about 25 scans each time to evaluate the data. […] Guanidine hydrochloride is a popular protein denaturant ([34]). […] As a negative control, we incubated PRMT1 in the presence of 6 M guanidine hydrochloride to disrupt oligomer formation. […] A literature reported that guanidine thiocyanate is a stronger denaturant than guanidine hydrochloride ([35]).
Figure 2 Oligomerization of PRMT1 detection by dynamic light scattering. Various concentrations of PRMT1 were incubated on ice for 10 min, then filtered by 0.2-micron syringe filter and collected data from the DLS. The top line with black circle indicates PRMT1 without denaturant. The open triangle and hexagon lines indicated PRMT1 oligomeric structure disrupted by 6 M guanidine hydrochloride and 5 M guanidine thiocyanate, respectively.
Indicated concentrations of PRMT1 were incubated for 10 min on ice with buffer (50 mM Hepes pH 8, 10 mM NaCl, 0.5 mM EDTA, 0.5 mM DTT) and filtered through the 0.22 μm syringe filter. For the experiment to disrupt the oligomer formation, 6 M of guanidine hydrochloride or 5 M of guanidine thiocyanate was added to the reaction. The samples were injected into the 1 ml disposable cuvette and measured by Zetasizer Nano ZS (Malvern Instruments) at 25 °C. Three measurements of 25 scans each were collected to average. The data was analyzed by the Malvern Zetasizer software v7.10.

T1 sequence (Q99873 11-353 isoform Q99873-3): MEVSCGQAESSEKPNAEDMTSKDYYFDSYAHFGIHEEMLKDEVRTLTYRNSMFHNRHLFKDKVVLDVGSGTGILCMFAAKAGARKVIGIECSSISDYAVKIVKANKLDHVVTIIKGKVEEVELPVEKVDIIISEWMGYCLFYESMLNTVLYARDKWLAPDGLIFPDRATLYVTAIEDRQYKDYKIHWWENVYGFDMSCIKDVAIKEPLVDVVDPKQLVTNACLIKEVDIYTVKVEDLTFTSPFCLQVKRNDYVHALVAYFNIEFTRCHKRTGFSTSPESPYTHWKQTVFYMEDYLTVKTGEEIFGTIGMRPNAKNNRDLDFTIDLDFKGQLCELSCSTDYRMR
T2 sequence (Q99873 11-353 isoform Q99873-3): as above

Substance | R4 methylation states vs PRMT1-E153Q concentration [1] | methylation states observed (PRMT1 [2]) | PRMT1 enzymatic activity (CPM) vs PRMT1 concentration (PRMT1-WT) | number of methylation states in R4 substrate by PRMT1-WT (R4 peptide) | Z-average vs PRMT1 concentration (PRMT1 [3])
Ac-GGRGGFGGRGGKGGRGGFGGRGGFG [R4 peptide, synthetic peptide with four possible arginine methylation sites for PRMT1] | the amounts of all of the different methylation states increased as more and more PRMT1-E153Q protein was added; also recorded: hexa- and hepta-methylated R4 peptides appeared when PRMT1-E153Q was increased up at 2 μM | multimethylated by PRMT1, from monomethylation to penta-methylation and hexa-methylation; also recorded: the hexa-methylation peak was only observed at 1 μM | increase as higher-order oligomeric structures were formed | – | –
protein arginine methyltransferase 1 [PRMT1] | – | – | – | up to six methylation states in the R4 substrate | increased gradually with the increase in PRMT1 concentration
